Results from PubChem BioAssay AID1845199 (Molecular Pharmacology Branch, DTP, NCI, 2023).
“And” between values parts separate entries of the source, which are not always exact repeats. Identical values can stand only once.

Test system: 556581-035-R-J1 tumor spheroid viability, % test/control
Test: Anticancer human tumor 556581-035-R-J1 patient-derived ovarian carcinoma cell line growth inhibition
Conditions: spheroids with HUVEC and MSC; for viability, T/C: stronger effect = lower value
Procedure, shortened: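 Complex tumor spheroids combined malignant cells with endothelial cells and mesenchymal stem cells. DNA-damaging drugs and DNA repair inhibitors were tested alone and in combination, at half-log dilutions down from clinical Cmax (top 10 microM if Cmax unknown), 0.25% DMSO final.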

[1] = curve of first compound, second compound 1 µM
[2] = curve of first compound, second compound 3.16 µM
[3] = curve of first compound, second compound 10 µM
[4] = curve of first compound, second compound 31.6 µM
[5] = curve of first compound, second compound 100 µM
[6] = second compound 1 µM, first compound 0.00949 µM
[7] = second compound 1 µM, first compound 0.03 µM
[8] = second compound 1 µM, first compound 0.0949 µM
[9] = second compound 1 µM, first compound 0.3 µM
[10] = second compound 1 µM, first compound 0.949 µM
[11] = second compound 1 µM, first compound 3 µM
[12] = second compound 3.16 µM, first compound 0.00949 µM
[13] = second compound 3.16 µM, first compound 0.03 µM
[14] = second compound 3.16 µM, first compound 0.0949 µM
[15] = second compound 3.16 µM, first compound 0.3 µM
[16] = second compound 3.16 µM, first compound 0.949 µM
[17] = second compound 3.16 µM, first compound 3 µM
[18] = second compound 10 µM, first compound 0.00949 µM
[19] = second compound 10 µM, first compound 0.03 µM
[20] = second compound 10 µM, first compound 0.0949 µM
[21] = second compound 10 µM, first compound 0.3 µM
[22] = second compound 10 µM, first compound 0.949 µM
[23] = second compound 10 µM, first compound 3 µM
[24] = second compound 31.6 µM, first compound 0.00949 µM
[25] = second compound 31.6 µM, first compound 0.03 µM
[26] = second compound 31.6 µM, first compound 0.0949 µM
[27] = second compound 31.6 µM, first compound 0.3 µM
[28] = second compound 31.6 µM, first compound 0.949 µM
[29] = second compound 31.6 µM, first compound 3 µM
[30] = second compound 100 µM, first compound 0.00949 µM
[31] = second compound 100 µM, first compound 0.03 µM
[32] = second compound 100 µM, first compound 0.0949 µM
[33] = second compound 100 µM, first compound 0.3 µM
[34] = second compound 100 µM, first compound 0.949 µM
[35] = second compound 100 µM, first compound 3 µM
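Further: spheroids exposed to compounds for 7 days before viability read.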

Cn1ncnc1[C@H]1c2n[nH]c(=O)c3cc(F)cc(c23)N[C@@H]1c1ccc(F)cc1 + Cn1nnc2c(C(N)=O)ncn2c1=O
IC50 [1]: > 3 µM | IC50 [2]: > 3 µM | IC50 [3]: > 3 µM | IC50 [4]: 1.95 µM | IC50 [5]: 1.24 µM | viability, T/C [6]: 99.5% | viability, T/C [7]: 93.1% | viability, T/C [8]: 87.3% | viability, T/C [9]: 75.5% | viability, T/C [10]: 67.6% | viability, T/C [11]: 51.1% | viability, T/C [12]: 102% | viability, T/C [13]: 89.7% | viability, T/C [14]: 87.7% | viability, T/C [15]: 73.9% | viability, T/C [16]: 67.8% | viability, T/C [17]: 50.2% | viability, T/C [18]: 94% | viability, T/C [19]: 88.7% | viability, T/C [20]: 85.8% | viability, T/C [21]: 76.6% | viability, T/C [22]: 66% | viability, T/C [23]: 52.2% | viability, T/C [24]: 86.4% | viability, T/C [25]: 74.4% | viability, T/C [26]: 77.9% | viability, T/C [27]: 68.3% | viability, T/C [28]: 62.3% | viability, T/C [29]: 43% | viability, T/C [30]: 74.4% | viability, T/C [31]: 71.8% | viability, T/C [32]: 70.4% | viability, T/C [33]: 65.9% | viability, T/C [34]: 54.7% | viability, T/C [35]: 34%

CNCc1ccc(-c2cc(-c3nc(-c4ccc(S(=O)(=O)C(C)C)cc4)cnc3N)on2)cc1 + COc1cc2c(cc1O)CCNC21CSC2c3c(OC(C)=O)c(C)c4c(c3C(COC1=O)N1C(O)C3Cc5cc(C)c(OC)c(O)c5C(C21)N3C)OCO4
IC50 (curve of first compound, second compound 30 pM): 1.61 µM | IC50 (curve of first compound, second compound 94.9 pM): 1.24 µM | IC50 (curve of first compound, second compound 0.0003 µM): 0.725 µM | IC50 (curve of first compound, second compound 0.000949 µM): < 0.00949 µM | IC50 (curve of first compound, second compound 0.003 µM): < 0.00949 µM | viability, T/C (second compound 30 pM, first compound 0.00949 µM): 99.4% | viability, T/C (second compound 30 pM, first compound 0.03 µM): 108% | viability, T/C (second compound 30 pM, first compound 0.0949 µM): 108% | viability, T/C (second compound 30 pM, first compound 0.3 µM): 108% | viability, T/C (second compound 30 pM, first compound 0.949 µM): 69.4% | viability, T/C (second compound 30 pM, first compound 3 µM): 27.1% | viability, T/C (second compound 94.9 pM, first compound 0.00949 µM): 105% | viability, T/C (second compound 94.9 pM, first compound 0.03 µM): 102% | viability, T/C (second compound 94.9 pM, first compound 0.0949 µM): 105% | viability, T/C (second compound 94.9 pM, first compound 0.3 µM): 96.1% | viability, T/C (second compound 94.9 pM, first compound 0.949 µM): 61% | viability, T/C (second compound 94.9 pM, first compound 3 µM): 13.6% | viability, T/C (second compound 0.0003 µM, first compound 0.00949 µM): 94.4% | viability, T/C (second compound 0.0003 µM, first compound 0.03 µM): 97.1% | viability, T/C (second compound 0.0003 µM, first compound 0.0949 µM): 107% | viability, T/C (second compound 0.0003 µM, first compound 0.3 µM): 94.3% | viability, T/C (second compound 0.0003 µM, first compound 0.949 µM): 36.5% | viability, T/C (second compound 0.0003 µM, first compound 3 µM): 11% | viability, T/C (second compound 0.000949 µM, first compound 0.00949 µM): 28.1% | viability, T/C (second compound 0.000949 µM, first compound 0.03 µM): 38.3% | viability, T/C (second compound 0.000949 µM, first compound 0.0949 µM): 25.6% | viability, T/C (second compound 0.000949 µM, first compound 0.3 µM): 9.62% | viability, T/C (second compound 0.000949 µM, first compound 0.949 µM): 2.92% | viability, T/C (second compound 0.000949 µM, first compound 3 µM): 0.33% | viability, T/C (second compound 0.003 µM, first compound 0.00949 µM): 0.74% | viability, T/C (second compound 0.003 µM, first compound 0.03 µM): 0.64% | viability, T/C (second compound 0.003 µM, first compound 0.0949 µM): 0.49% | viability, T/C (second compound 0.003 µM, first compound 0.3 µM): 0.47% | viability, T/C (second compound 0.003 µM, first compound 0.949 µM): 0.42% | viability, T/C (second compound 0.003 µM, first compound 3 µM): 0.33%

CNCc1ccc(-c2cc(-c3nc(-c4ccc(S(=O)(=O)C(C)C)cc4)cnc3N)on2)cc1 + Cn1nnc2c(C(N)=O)ncn2c1=O
IC50 [1]: 1.67 µM | IC50 [2]: 1.56 µM | IC50 [3]: 1.38 µM | IC50 [4]: 1.38 µM | IC50 [5]: 0.953 µM | viability, T/C [6]: 101% | viability, T/C [7]: 108% | viability, T/C [8]: 109% | viability, T/C [9]: 104% | viability, T/C [10]: 80.2% | viability, T/C [11]: 18.6% | viability, T/C [12]: 104% | viability, T/C [13]: 117% | viability, T/C [14]: 105% | viability, T/C [15]: 106% | viability, T/C [16]: 72.6% | viability, T/C [17]: 20% | viability, T/C [18]: 106% | viability, T/C [19]: 109% | viability, T/C [20]: 110% | viability, T/C [21]: 105% | viability, T/C [22]: 67.3% | viability, T/C [23]: 15.3% | viability, T/C [24]: 113% | viability, T/C [25]: 113% | viability, T/C [26]: 110% | viability, T/C [27]: 98.4% | viability, T/C [28]: 66.2% | viability, T/C [29]: 16.5% | viability, T/C [30]: 111% | viability, T/C [31]: 102% | viability, T/C [32]: 120% | viability, T/C [33]: 98.2% | viability, T/C [34]: 50.5% | viability, T/C [35]: 11.6%

Cc1sc2c(c1C)C(c1ccc(Cl)cc1)=NC(CC(=O)Nc1ccc(O)cc1)c1nnc(C)n1-2 (configuration not stated) + Cn1nnc2c(C(N)=O)ncn2c1=O
IC50 [1]: > 3 µM | IC50 [2]: > 3 µM | IC50 [3]: > 3 µM | IC50 [4]: > 3 µM | IC50 [5]: 2.7 µM | viability, T/C [6]: 112% | viability, T/C [7]: 95.6% | viability, T/C [8]: 82% | viability, T/C [9]: 76.4% | viability, T/C [10]: 68% | viability, T/C [11]: 64.5% | viability, T/C [12]: 101% | viability, T/C [13]: 97.6% | viability, T/C [14]: 84.8% | viability, T/C [15]: 75.6% | viability, T/C [16]: 65.5% | viability, T/C [17]: 61.2% | viability, T/C [18]: 98% | viability, T/C [19]: 94.6% | viability, T/C [20]: 82.6% | viability, T/C [21]: 72.6% | viability, T/C [22]: 68.1% | viability, T/C [23]: 57.5% | viability, T/C [24]: 96.9% | viability, T/C [25]: 93.9% | viability, T/C [26]: 82.2% | viability, T/C [27]: 70.7% | viability, T/C [28]: 65.1% | viability, T/C [29]: 54.3% | viability, T/C [30]: 99.5% | viability, T/C [31]: 99.2% | viability, T/C [32]: 79.9% | viability, T/C [33]: 71.5% | viability, T/C [34]: 59.1% | viability, T/C [35]: 48.5%

Cc1cc(C)c(CNC(=O)c2cc(-c3ccc(CN4CCOCC4)cc3)cc3c2cnn3C2CCCC2)c(=O)[nH]1
viability, T/C (compound 0.0316 µM): 103% and 104% and 86.6% | viability, T/C (compound 0.1 µM): 108% and 103% and 97.3% | viability, T/C (compound 0.316 µM): 112% and 108% and 97.3% | viability, T/C (compound 1 µM): 115% and 102% and 120% | viability, T/C (compound 3.16 µM): 104% and 105% and 107% | viability, T/C (compound 10 µM): 89.3% (2×) and 93.4% | IC50 (curve of compound): > 10 µM
